Results as given in US6686393B1, “Pharmaceutical compositions having antiviral activity against human cytomegalovirus” (Murdock International Corporation, priority 1990, dated 2004).
“And” between values parts separate entries of the source, which are not always exact repeats. Identical values can stand only once. Like-named read-outs stand apart in the source and are kept apart here.

Key:
[1] = test system: human cytomegalovirus (HCMV), strain AD-169; assay: Antiviral test (plaque reduction) versus HCMV, strain AD-169, in MRC-5 cells; assay type: cell-based
[2] = Human betaherpesvirus 5, AD169, MRC5, read-out: % Reduction
[3] = Human betaherpesvirus 5, AD169, MRC5, read-out: Percent Inhibition of Plaque Numbers (Compared to Virus Controls)

O=C(O)c1cc(O)c2c(c1)[C@H]([C@H]1c3cc(C(=O)O)cc(O)c3C(=O)c3c(O[C@@H]4O[C@H](CO)[C@@H](O)[C@H](O)[C@H]4O)cccc31)c1cccc(O[C@@H]3O[C@H](CO)[C@@H](O)[C@H](O)[C@H]3O)c1C2=O [(+)Sennoside A, sennoside A]
Percent Inhibition of Plaque Numbers (Compared to Virus Controls) ([1]; 0.01 μg/ml, Example 2): 0% | Percent Inhibition of Plaque Numbers (Compared to Virus Controls) ([1]; 0.032 μg/ml, Example 2): 0% | Percent Inhibition of Plaque Numbers (Compared to Virus Controls) ([1]; 0.1 μg/ml, Example 2): 0% | Percent Inhibition of Plaque Numbers (Compared to Virus Controls) ([1]; 0.32 μg/ml, Example 2): 0% | Percent Inhibition of Plaque Numbers (Compared to Virus Controls) ([1]; 1.0 μg/ml, Example 2): 0% | Percent Inhibition of Plaque Numbers (Compared to Virus Controls) ([1]; 3.2 μg/ml, Example 2): 0% | Percent Inhibition of Plaque Numbers (Compared to Virus Controls) ([1]; 10 μg/ml, Example 2, ethanol stock (protohypericin in DMSO), cells exposed 6 or more days): 0% | CD50 (MRC-5 cells; Example 2, cells exposed 6 or more days): >10 µg/mL | CD50 (MRC-5 cells; Table 9 summary, two values = two experiments): >10 µg/mL

O=C1c2cccc(O)c2C(=O)c2c(O)cc(CO)cc21 [Aloe-Emodin, aloe-emodin]
inhibition at 0.01 µg/mL ([1]; Human betaherpesvirus 5, AD169, MRC5, 0.01 μg/ml, Example 2, read-out: Percent Inhibition of Plaque Numbers (Compared to Virus Controls)): 0% | inhibition at 0.032 µg/mL ([1]; Human betaherpesvirus 5, AD169, MRC5, 0.032 μg/ml, Example 2, read-out: Percent Inhibition of Plaque Numbers (Compared to Virus Controls)): 0% | inhibition at 0.1 µg/mL ([1]; Human betaherpesvirus 5, AD169, MRC5, 0.1 μg/ml, Example 2, read-out: Percent Inhibition of Plaque Numbers (Compared to Virus Controls)): 0% | inhibition at 0.32 µg/mL ([1]; Human betaherpesvirus 5, AD169, MRC5, 0.32 μg/ml, Example 2, read-out: Percent Inhibition of Plaque Numbers (Compared to Virus Controls)): 0% | inhibition at 1 µg/mL ([1]; Human betaherpesvirus 5, AD169, MRC5, 1.0 μg/ml, Example 2, read-out: Percent Inhibition of Plaque Numbers (Compared to Virus Controls)): 0% | inhibition at 3.2 µg/mL ([1]; Human betaherpesvirus 5, AD169, MRC5, 3.2 μg/ml, Example 2, read-out: Percent Inhibition of Plaque Numbers (Compared to Virus Controls)): 0% | inhibition at 10 µg/mL ([1]; Human betaherpesvirus 5, AD169, MRC5, 10 μg/ml, Example 2, ethanol stock (protohypericin in DMSO), cells exposed 6 or more days, read-out: Percent Inhibition of Plaque Numbers (Compared to Virus Controls)): 0% | CD50 (MRC-5 cells; human): >10 µg/mL

O=C1c2c(O)cccc2C([C@@H]2O[C@H](CO)[C@@H](O)[C@H](O)[C@H]2O)c2cc(CO)cc(O)c21 (stereo partly drawn) [Aloin, aloin]
Number of Plaques [1]: 24 and 26 and 20 and 16 | inhibition at 0.01 µg/mL [1, 2]: 0% | inhibition at 0.032 µg/mL [1, 2]: 0% | inhibition at 0.1 µg/mL [1, 2]: 0% | inhibition at 0.32 µg/mL [1, 2]: 0% | inhibition at 1 µg/mL [1, 2]: 0% | inhibition at 3.2 µg/mL [1, 2]: 0% | inhibition at 10 µg/mL [1, 2]: 0% | CD50 (MRC-5 cells; human): >10 µg/mL

O=C1c2ccc(O)cc2C(=O)c2ccc(O)cc21 [Anthraflavic Acid, anthraflavic acid]
inhibition at 0.01 µg/mL [1, 3]: 0% | inhibition at 0.032 µg/mL [1, 3]: 0% | inhibition at 0.1 µg/mL [1, 3]: 0% | inhibition at 0.32 µg/mL [1, 3]: 0% | inhibition at 1 µg/mL [1, 3]: 11% | inhibition at 3.2 µg/mL [1, 3]: 15% | CD50 (MRC-5 cells; human): 3.4 µg/mL
